According to US5668182A, “Method of calming or sedating an animal with a hydroxy benzaldehyde compound” (priority 1996, dated 1997):
Where two headings read alike, the source gives them in different places.

Columns and labels:
Format in all cases: in vivo
[1] = tested on: rats; assay: Behavioral depression in rats after i.v. infusion (Example 1); details: for Grip Absent (number of rats): first figure of cell; for Grip Weak (number of rats): second figure of cell
Method: To assess behavioral depression in rats as induced by vanillin, male and female rats, five of each gender at each dose, were given doses of vanillin of 50, 100 or 200 mg/kg, respectively, or a control vehicle (0.9% sodium chloride in water) by intravenous (i.v.) infusion. Therefore, there were four groups of rats with ten rats per group tested at each dosage. The solution was infused into a tail vein through a butterfly cannula, with the infusion being performed at a constant rate over a 5-minute period using a Harvard infusion pump.
The evaluations were performed on days 1, 3, 5 and 9 of vanillin administration.

[2] = tested on: mice; assay: Pentobarbital-induced loss of righting reflex ("sleep") in mice (Example 2)
Method: The depressant effect of vanillin on mice was investigated by examining the effect of vanillin on pentobarbital-induced loss of righting reflex. Groups of mice (six to fourteen mice per group) were designated to receive a dose of vanillin of 50, 100, 200 or 300 mg/kg, or a control vehicle (0.9% sodium chloride in water). Fifty (50) mg/kg I.p. (intraperitoneally)injected pentobarbital was administered to each mouse of each group, and each mouse was also concurrently given the dose of vanillin (50, 100, 200 or 300 mg/kg) or the control vehicle, depending on its grouping, by s.c. (subcutaneous) injection.
The effects of vanillin on the onset and duration of "sleep" induced by the pentobarbital were observed. […] Means and standard errors of values for onset and duration of "sleep" were determined for each experimental group. Each vanillin-treated group was compared with its concomitantly tested control group (treated with saline in lieu of vanillin) for evaluating the statistical significance of vanillin effect.

[3] = tested on: mice; assay: Inverted screen test in mice (Example 4); details: for ED50: Mus musculus, ip
Method: An inverted screen test was performed on mice to investigate the effect of vanillin and vanillin analogs on muscular function. After i.p. injection of vanillin or vehicle, each mouse was placed on a wire screen (12.8 cm×12.8 cm with a 6 mm mesh size) and the screen was inverted. A positive effect was found if the drug caused the mouse to fall from the screen within 60 seconds. A negative effect was found if the mouse had the ability to climb from the underside of the screen to the top side of the screen within the 60 second time period. Hanging from the underside of the screen without falling but without climbing to the topside at 60 seconds is recorded as a one-half positive effect per the convention of Coughenour, L. L.; Mclean, J. R.; Parker, R. B., "A New Device for the Rapid Measurement of Impaired Motor Function in Mice," Pharmacol. Biochem. Behav., 6: 351-353; 1977. The test was performed at 2, 5, 10, and 30 minutes following administration of vanillin or vehicle. At each of those times, an ED-50 (and 95% confidence limits) was determined for vanillin. Six mice were used in each experimental group.
Several analogs of vanillin were also examined in this test. The chemical structures and chemical names for these compounds are described hereinabove.
The testing of these compounds was limited both by supply of compound and by solubility. Testing was performed at 2, 5, 10, 20 minutes after administration of drug or vehicle. The vehicles used to solubilize the analogs were as follows: 10% ethanol for TBJ1, TBJ2, and TBJ3; 3% ammonium hydroxide solution in saline for FSA (pH=9); 6.7% ammonium hydroxide in saline for TB17 (pH=9.3); and 20% ethanol, 1% ammonium hydroxide solution in saline for TB34 (pH=10.0). ED-50s of compounds (and 95% confidence limits) were calculated in cases where the data permitted the calculation.

[4] = 50 mg/kg i.v., day 1, <2 min, 10 rats per group
[5] = highest dose (200 mg/kg i.v.), day 1
[6] = highest dose (200 mg/kg i.v.), days 5 and 9

COc1cc(C=O)ccc1O [vanillin, 4-hydroxy-3-methoxybenzaldehyde]
Ambulation Absent (number of rats) ([1]; 50 mg/kg i.v., day 1, 10 min): 0 | Sign of depression: Score > 0 (number of rats) ([1]; 50 mg/kg i.v., day 1, 10 min, 10 rats per group): 0 | Grip Absent (number of rats) ([1]; 50 mg/kg i.v., day 1, 10 min): 0 | Grip Weak (number of rats) ([1]; 50 mg/kg i.v., day 1, 10 min): 0 | Ambulation Absent (number of rats) ([1]; 50 mg/kg i.v., day 1, 20 min): 0 | Sign of depression: Score > 0 (number of rats) ([1]; 50 mg/kg i.v., day 1, 20 min, 10 rats per group): 0 | Grip Absent (number of rats) ([1]; 50 mg/kg i.v., day 1, 20 min): 0 | Grip Weak (number of rats) ([1]; 50 mg/kg i.v., day 1, 20 min): 0 | Ambulation Absent (number of rats) ([1]; 50 mg/kg i.v., day 1, 30 min): 0 | Sign of depression: Score > 0 (number of rats) ([1]; 50 mg/kg i.v., day 1, 30 min, 10 rats per group): 0 | Grip Absent (number of rats) ([1]; 50 mg/kg i.v., day 1, 30 min): 0 | Grip Weak (number of rats) ([1]; 50 mg/kg i.v., day 1, 30 min): 0 | Ambulation Absent (number of rats) ([1]; 50 mg/kg i.v., day 1, 45 min): 0 | Sign of depression: Score > 0 (number of rats) ([1]; 50 mg/kg i.v., day 1, 45 min, 10 rats per group): 0 | Grip Absent (number of rats) ([1]; 50 mg/kg i.v., day 1, 45 min): 0 | Grip Weak (number of rats) ([1]; 50 mg/kg i.v., day 1, 45 min): 0 | Ambulation Absent (number of rats) [1, 4]: 0 | Grip Absent (number of rats) [1, 4]: 0 | Grip Weak (number of rats) [1, 4]: 1 | Sign of depression: Score > 0 (number of rats) ([1]; 50 mg/kg i.v., day 1, <2 min after treatment, 10 rats per group): 0 | Ambulation Absent (number of rats) ([1]; 100 mg/kg i.v., day 1, 10 min): 0 | Sign of depression: Score > 0 (number of rats) ([1]; 100 mg/kg i.v., day 1, 10 min, 10 rats per group): 0 | Grip Absent (number of rats) ([1]; 100 mg/kg i.v., day 1, 10 min): 0 | Grip Weak (number of rats) ([1]; 100 mg/kg i.v., day 1, 10 min): 2 | Ambulation Absent (number of rats) ([1]; 100 mg/kg i.v., day 1, 20 min): 0 | Sign of depression: Score > 0 (number of rats) ([1]; 100 mg/kg i.v., day 1, 20 min, 10 rats per group): 0 | Grip Absent (number of rats) ([1]; 100 mg/kg i.v., day 1, 20 min): 0 | Grip Weak (number of rats) ([1]; 100 mg/kg i.v., day 1, 20 min): 0 | Ambulation Absent (number of rats) ([1]; 100 mg/kg i.v., day 1, 30 min): 0 | Sign of depression: Score > 0 (number of rats) ([1]; 100 mg/kg i.v., day 1, 30 min, 10 rats per group): 0 | Grip Absent (number of rats) ([1]; 100 mg/kg i.v., day 1, 30 min): 0 | Grip Weak (number of rats) ([1]; 100 mg/kg i.v., day 1, 30 min): 0 | Ambulation Absent (number of rats) ([1]; 100 mg/kg i.v., day 1, 45 min): 0 | Sign of depression: Score > 0 (number of rats) ([1]; 100 mg/kg i.v., day 1, 45 min, 10 rats per group): 0 | Grip Absent (number of rats) ([1]; 100 mg/kg i.v., day 1, 45 min): 0 | Grip Weak (number of rats) ([1]; 100 mg/kg i.v., day 1, 45 min): 0 | Ambulation Absent (number of rats) ([1]; 100 mg/kg i.v., day 1, <2 min): 0 | Grip Absent (number of rats) ([1]; 100 mg/kg i.v., day 1, <2 min): 0 | Grip Weak (number of rats) ([1]; 100 mg/kg i.v., day 1, <2 min): 6 | Sign of depression: Score > 0 (number of rats) ([1]; 100 mg/kg i.v., day 1, <2 min after treatment, 10 rats per group): 0 | Ambulation Absent (number of rats) ([1]; 200 mg/kg i.v., day 1, 10 min): 0 | Sign of depression: Score > 0 (number of rats) ([1]; 200 mg/kg i.v., day 1, 10 min, 10 rats per group): 0 | Grip Absent (number of rats) ([1]; 200 mg/kg i.v., day 1, 10 min): 0 | Grip Weak (number of rats) ([1]; 200 mg/kg i.v., day 1, 10 min): 8 | Ambulation Absent (number of rats) ([1]; 200 mg/kg i.v., day 1, 20 min): 0 | Sign of depression: Score > 0 (number of rats) ([1]; 200 mg/kg i.v., day 1, 20 min, 10 rats per group): 0 | Grip Absent (number of rats) ([1]; 200 mg/kg i.v., day 1, 20 min): 0 | Grip Weak (number of rats) ([1]; 200 mg/kg i.v., day 1, 20 min): 8 | Ambulation Absent (number of rats) ([1]; 200 mg/kg i.v., day 1, 30 min): 0 | Sign of depression: Score > 0 (number of rats) ([1]; 200 mg/kg i.v., day 1, 30 min, 10 rats per group): 0 | Grip Absent (number of rats) ([1]; 200 mg/kg i.v., day 1, 30 min): 0 | Grip Weak (number of rats) ([1]; 200 mg/kg i.v., day 1, 30 min): 5 | Ambulation Absent (number of rats) ([1]; 200 mg/kg i.v., day 1, 45 min): 0 | Sign of depression: Score > 0 (number of rats) ([1]; 200 mg/kg i.v., day 1, 45 min, 10 rats per group): 0 | Grip Absent (number of rats) ([1]; 200 mg/kg i.v., day 1, 45 min): 0 | Grip Weak (number of rats) ([1]; 200 mg/kg i.v., day 1, 45 min): 2 | Ambulation Absent (number of rats) ([1]; 200 mg/kg i.v., day 1, <2 min): 5 | Grip Absent (number of rats) ([1]; 200 mg/kg i.v., day 1, <2 min): 10 | Grip Weak (number of rats) ([1]; 200 mg/kg i.v., day 1, <2 min): 10 | Sign of depression: Score > 0 (number of rats) ([1]; 200 mg/kg i.v., day 1, <2 min after treatment, 10 rats per group): 3 | rats rated with depression scores above zero ([1]; days 5 and 9): no rats | time for diminished grip to return to normal ([1]; days 5 and 9, almost all rats with diminished grip): ≤ 20 min | tolerance to depressant effects ([1]; days 5 and 9, i.v.): some suggestion of tolerance | effect on grip strength [1, 5]: obliterated | persistence of slight effect on grip strength [1, 5]: ≥ 45 min | rats displaying absence of grip [1, 6]: 4 of 10 | rats exhibiting no muscular or motor impairment at all [1, 6]: 1 | time for return of ability to walk ([1]; i.v., highest dose 200 mg/kg, day 1, some of the rats): less than 10 minutes | persistence of eye closure ([1]; intermediate and high dose groups i.v., several rats): up to 45 minutes | time to appearance of eye closure ([1]; intermediate and high dose groups i.v., several rats, typically): ≤ 10 min | effect on grip strength ([1]; intermediate dose (100 mg/kg i.v.), day 1): weakened in most rats | effects on righting reflex and on motor coordination ([1]; vanillin given alone, rats): mild and transient | duration of loss of righting reflex ([2]; 100 to 300 mg/kg along with pentobarbital): markedly increased and enhanced | effect on barbituate-induced loss of righting reflex ([2]; lower dose, 50 mg/kg): appeared to lessen the barbituate effect | Duration of "Sleep" (mean + SEM) ([2]; vanillin 50 mg/kg s.c. + pentobarbital 50 mg/kg i.p., * p<0.05 vs control (vehicle 31.0 ± 3.79)): 20.3 ± 1.09 min | Duration of "Sleep" (mean + SEM) ([2]; vanillin 100 mg/kg s.c. + pentobarbital 50 mg/kg i.p. (vehicle 36.5 ± 4.67)): 47.6 ± 4.48 min | Onset of "sleep" (mean + SEM) ([2]; vanillin 200 mg/kg s.c. + pentobarbital 50 mg/kg i.p. (vehicle 3.5 ± 0.87)): 2.8 ± 0.97 min | Duration of "Sleep" (mean + SEM) ([2]; vanillin 200 mg/kg s.c. + pentobarbital 50 mg/kg i.p., ** p<0.001 vs control (vehicle 27.4 ± 3.34)): 62.9 ± 5.05 min | Onset of "sleep" (mean + SEM) ([2]; vanillin 300 mg/kg s.c. + pentobarbital 50 mg/kg i.p. (vehicle 4.3 ± 0.97)): 3.3 ± 0.23 min | Duration of "Sleep" (mean + SEM) ([2]; vanillin 300 mg/kg s.c. + pentobarbital 50 mg/kg i.p., ** p<0.001 vs control (vehicle 39.6 ± 6.57)): 102.1 ± 5.71 min | ED50 ([3]; 2 min, 2 min post-treatment, read-out: ED-50 (95% confidence limits)): 112 mg/kg | ED50 ([3]; 5 min, 5 min post-treatment, read-out: ED-50 (95% confidence limits)): 104 mg/kg | ED50 ([3]; 10 min, 10 min post-treatment, read-out: ED-50 (95% confidence limits)): 112 mg/kg | ED50 ([3]; 10 min, first 10 minutes after injection, read-out: ED-50): ~100 mg/kg | ED50 ([3]; 0.5 h, 30 min post-treatment, read-out: ED-50 (95% confidence limits)): 748 mg/kg | change of potency with time ([3]; between 10 and 30 minutes after injection): declined precipitously
